Data as given in ChEMBL document CHEMBL3351881, “Chemical constituents isolated from Disporum viridescens leaves and their inhibitory effect on nitric oxide production in BV2 microglial cells” (Bioorg Med Chem Lett, 2014).
Active and inactive are the calls of the source. The rule behind the calls is not given here.

Legend:
[1] = test system: BV-2; assay: Neuroprotective effect in […] cells assessed as LPS-induced nitric oxide production at 10 to 100 uM incubated for 1 hr prior to LPS challenge measured after 24 hrs by Griess assay; assay type: functional, cell-based; settings: Mus musculus
[2] = test system: BV-2; assay: Inhibition of LPS-induced iNOS protein expression in […] cells at 0.1 uM by Western blotting analysis; assay type: functional, cell-based
[3] = test system: BV-2; assay: Inhibition of LPS-induced COX-2 protein expression in […] cells at 0.1 uM by Western blotting analysis; assay type: functional, cell-based
[4] = test system: BV-2; assay: Inhibition of LPS-induced ERK phosphorylation in […] cells at 0.1 uM by Western blotting analysis; assay type: cell-based
[5] = molecular target: T1, NF-kappa-B inhibitor alpha (Homo sapiens) (UniProt P25963); assay: Inhibition of LPS-induced IkB-alpha degradation in […] cells at 0.1 uM by Western blotting analysis; assay type: cell-based; settings: BV-2
T1 sequence (whole entry): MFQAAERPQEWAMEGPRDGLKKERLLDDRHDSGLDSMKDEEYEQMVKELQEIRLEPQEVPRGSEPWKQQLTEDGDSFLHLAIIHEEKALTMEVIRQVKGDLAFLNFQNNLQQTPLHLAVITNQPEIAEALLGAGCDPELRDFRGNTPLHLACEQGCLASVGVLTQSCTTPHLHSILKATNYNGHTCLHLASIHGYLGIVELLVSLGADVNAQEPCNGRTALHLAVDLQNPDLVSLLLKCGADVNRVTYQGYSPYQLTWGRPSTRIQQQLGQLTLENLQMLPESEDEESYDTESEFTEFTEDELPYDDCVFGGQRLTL

[6] = test system: c-Jun N-terminal kinase, JNK (Mus musculus); assay: Inhibition of LPS-induced JNK phosphorylation in mouse BV2 cells at 0.1 uM by Western blotting analysis; settings: BV-2
[7] = test system: MAP kinase p38 (Mus musculus); assay: Inhibition of LPS-induced p38 phosphorylation in mouse BV2 cells at 0.1 uM by Western blotting analysis; settings: BV-2

Row | inhibition [5] | inhibition [6] | inhibition [7] | SMILES | Activity [1] | inhibition [2] | inhibition [3] | inhibition [4]
1 | – | – | – | COc1cc([C@H]2Oc3c(O)cc(CCCO)cc3[C@@H]2CO)ccc1O | Active | Active | Active | –
2 | inactive | Active | Active | COc1cc([C@H]2O[C@H](O)C3C2CO[C@@H]3c2ccc(O)c(OC)c2)ccc1O (some centres not stated) | Active | Active | Active | Active
3 | – | – | – | COc1cc([C@H]2Oc3c(OC)cc(CCCO)cc3[C@@H]2CO[C@@H]2O[C@H](CO)[C@@H](O)[C@H](O)[C@H]2O)ccc1O | Active | – | – | –
4 | – | – | – | COc1cc([C@H]2OC[C@@]3(O[C@@H]4O[C@H](CO)[C@@H](O)[C@H](O)[C@H]4O)C2CO[C@@H]3c2ccc(O)c(OC)c2)ccc1O (some centres not stated) | Active | – | – | –
